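Protocol summary: plate cells (96-well), add compound at 5 concentrations, incubate 48 h, interpolate endpoints linearly. The concentration for 50% growth inhibition is given as GI50. TGI: concentration producing complete growth inhibition.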
How the values were obtained:
Assay in all cases: NCI-60 cell line screen, 48 h
[1] = tested on: M14 melanoma
[2] = tested on: OVCAR-8 ovarian
[3] = tested on: SNB-19 CNS
[4] = tested on: OVCAR-4 ovarian
[5] = tested on: SN12C renal
[6] = tested on: NCI-H460 lung
[7] = tested on: T-47D breast
[8] = tested on: K-562 leukemia
[9] = tested on: U251 CNS
[10] = tested on: MDA-MB-231 breast

With COc1ccc(-c2ccc(/C=N/n3cn[nH]c3=S)o2)c([N+](=O)[O-])c1 the GI50 [1] was 49 µM, the TGI [1] was > 100 µM and the GI50 [2] was 38.2 µM. For the same compound, the TGI [2] was > 100 µM, the GI50 [3] was 63.2 µM and the TGI [3] was > 100 µM. For the same compound, the GI50 [4] was 82.9 µM, the TGI [4] was > 100 µM and the GI50 [5] was 59.1 µM. For the same compound, the TGI [5] was > 100 µM, the GI50 [6] was 36.1 µM and the TGI [6] was > 100 µM. For the same compound, the GI50 [7] was 51.8 µM, the TGI [7] was > 100 µM and the GI50 [8] was 16.9 µM. It also gave a TGI [8] of 36.9 µM.
With CC1(C)CCSC(/C=C/c2ccccc2)=N1 the TGI [9] was 34.3 µM, the TGI [1] was 27 µM and the TGI [2] was 29.8 µM. The TGI [3] was 46 µM, the TGI [4] was 32.5 µM and the TGI [6] was 24.6 µM. The TGI [8] was > 100 µM and the TGI [10] was 30.6 µM.
O=C(CC(=O)Nc1ccc(Cl)cc1)NNCC(=O)Nc1nc(-c2ccccc2)cs1 was tested, and the TGI [9] was > 100 µM, the TGI [1] was > 100 µM and the TGI [2] was > 100 µM. The TGI [3] was > 100 µM, the TGI [4] was > 100 µM and the TGI [5] was > 100 µM. The TGI [6] was > 100 µM and the TGI [8] was > 100 µM.
For CC1CCC2(OC1)OC1CC3C4CC=C5CC(OC6OC(CO)C(OC7OC(C)C(OC8OC(C)C(O)C(O)C8O)C(O)C7O)C(O)C6OC6OC(C)C(O)C(O)C6O)CCC5(C)C4CCC3(C)C1C2C (configuration not stated), the TGI [9] was 1.96 µM, the TGI [1] was 2.27 µM and the TGI [2] was 1.59 µM. It also gave a TGI [3] of 2.4 µM, a TGI [4] of 1.33 µM and a TGI [5] of 1.04 µM. It also gave a TGI [6] of 3.25 µM, a TGI [7] of 2.89 µM and a TGI [10] of 1.33 µM.
CCCCCCN1C(=O)/C(=c2\sc3n(c2=O)C2C(NN=3)N(CC)C(=O)N2CC)c2ccccc21 (configuration not stated) was tested, and the GI50 [1] was 3.24 µM, the TGI [1] was > 50 µM and the GI50 [2] was 1.47 µM. For the same compound, the TGI [2] was > 50 µM, the GI50 [3] was 3.03 µM and the TGI [3] was > 50 µM. For the same compound, the GI50 [5] was 2.74 µM, the TGI [5] was > 50 µM and the GI50 [7] was 1.66 µM. For the same compound, the TGI [7] was > 50 µM, the GI50 [8] was 1.89 µM and the TGI [8] was > 50 µM. For the same compound, the GI50 [10] was 1.77 µM and the TGI [10] was 10.4 µM.
In the case of Cc1c(C(=O)/C=C/c2ccc(O)cc2)nnn1-c1ccnc2c(C(F)(F)F)cccc12, the GI50 [9] is reported as 5.14 µM, the TGI [9] is reported as 69.8 µM and the GI50 [1] is reported as 49.6 µM. The TGI [1] was > 100 µM, the GI50 [2] was 10 µM and the TGI [2] was > 100 µM. For the same compound, the GI50 [3] was 24.9 µM, the TGI [3] was > 100 µM and the GI50 [5] was 18 µM. For the same compound, the TGI [5] was > 100 µM, the GI50 [6] was 15 µM and the TGI [6] was > 100 µM. For the same compound, the GI50 [7] was 5.53 µM, the TGI [7] was > 100 µM and the GI50 [8] was 2.64 µM. The TGI [8] was > 100 µM, the GI50 [10] was 21.7 µM and the TGI [10] was > 100 µM.
CCNC(=O)C(O)C1(O)CCC2[C@@H]3CCC4=CC(=O)C=C[C@]4(C)C3[C@@H](O)C[C@@]21C (some centres not stated) was tested, and the TGI [9] was > 100 µM, the TGI [1] was > 100 µM and the TGI [2] was > 100 µM. For the same compound, the TGI [3] was > 100 µM, the TGI [4] was > 100 µM and the TGI [5] was > 100 µM. The TGI [6] was > 100 µM and the TGI [8] was > 100 µM.
COc1ccc2[nH]c3c(cnn4cnnc34)c2c1 was tested, and the TGI [9] was > 100 µM, the TGI [1] was > 100 µM and the TGI [2] was > 100 µM. The TGI [3] was > 100 µM, the TGI [4] was > 100 µM and the TGI [5] was > 100 µM. For the same compound, the TGI [6] was > 100 µM and the TGI [8] was > 100 µM.
For Cc1ccc2sc3cc(=O)cc(C)c-3nc2c1, the TGI [9] was > 100 µM, the TGI [1] was > 100 µM and the TGI [2] was > 100 µM. For the same compound, the TGI [3] was > 100 µM, the TGI [4] was 52.4 µM and the TGI [5] was > 100 µM. The TGI [6] was > 100 µM and the TGI [8] was > 100 µM.
O=C1CCC(c2nc3ccccc3o2)C(=O)N1 (configuration not stated) was tested, and the TGI [9] was > 100 µM, the TGI [1] was > 100 µM and the TGI [2] was > 100 µM. For the same compound, the TGI [3] was > 100 µM, the TGI [4] was > 100 µM and the TGI [5] was > 100 µM. The TGI [6] was > 100 µM and the TGI [8] was > 100 µM.
Compound CCCCCCn1c(-c2ccc(C(=O)O/N=C(\N)c3ccc(OC)cc3)cc2)nc(-c2ccccc2)c1-c1ccccc1 has a GI50 [9] of 1.62 µM, a TGI [9] of 4.21 µM and a GI50 [2] of 2.21 µM. It also gave a TGI [2] of 6.47 µM, a GI50 [3] of 1.85 µM and a TGI [3] of 4.64 µM. For the same compound, the GI50 [5] was 1.62 µM, the TGI [5] was 3.26 µM and the GI50 [6] was 1.85 µM. It also gave a TGI [6] of 3.93 µM, a GI50 [7] of 1.94 µM and a TGI [7] of 4.89 µM. For the same compound, the GI50 [10] was 1.61 µM and the TGI [10] was 3.69 µM.
With Nc1nc(-n2cccn2)nc(-n2cccn2)c1Br the GI50 [9] was > 100 µM, the TGI [9] was > 100 µM and the GI50 [1] was > 100 µM. The TGI [1] was > 100 µM, the GI50 [2] was > 100 µM and the TGI [2] was > 100 µM. The GI50 [4] was > 100 µM, the TGI [4] was > 100 µM and the GI50 [5] was > 100 µM. For the same compound, the TGI [5] was > 100 µM, the GI50 [6] was > 100 µM and the TGI [6] was > 100 µM. For the same compound, the GI50 [7] was > 100 µM, the TGI [7] was > 100 µM and the GI50 [8] was > 100 µM. The TGI [8] was > 100 µM, the GI50 [10] was > 100 µM and the TGI [10] was > 100 µM.
With COc1ccc(Cl)cc1N1C(=O)C(Cl)=C(Nc2cccc(O)c2)C1=O the GI50 [9] was 17.5 µM, the TGI [9] was 48 µM and the GI50 [1] was 14 µM. It also gave a TGI [1] of 29.9 µM, a GI50 [2] of 15.1 µM and a TGI [2] of 31.2 µM. The GI50 [3] was 30.2 µM, the TGI [3] was > 100 µM and the GI50 [4] was 16.7 µM. For the same compound, the TGI [4] was 40 µM, the GI50 [5] was 14.7 µM and the TGI [5] was 29.8 µM. For the same compound, the GI50 [6] was 17.9 µM, the TGI [6] was 48.6 µM and the GI50 [7] was 22.6 µM. The TGI [7] was > 100 µM, the GI50 [8] was 18.5 µM and the TGI [8] was 46.2 µM.
With COc1n[n+]([O-])c(C)cc1[N+](=O)[O-] the GI50 [9] was 16.8 µM, the TGI [9] was 34.5 µM and the GI50 [1] was 4.97 µM. The TGI [1] was 18.3 µM, the GI50 [2] was 13.4 µM and the TGI [2] was 39.5 µM. For the same compound, the GI50 [4] was 16.1 µM, the TGI [4] was 30.5 µM and the GI50 [5] was 13.5 µM. The TGI [5] was 31.6 µM, the GI50 [6] was 3.05 µM and the TGI [6] was 16.4 µM. For the same compound, the GI50 [10] was 19.5 µM and the TGI [10] was 42.2 µM.
For COC(=O)c1nc(-c2ccc(Cl)c(Cl)c2)nc2ccccc12, the TGI [9] was > 100 µM, the TGI [1] was > 100 µM and the TGI [2] was > 100 µM. For the same compound, the TGI [3] was 79.5 µM, the TGI [5] was > 100 µM and the TGI [6] was > 100 µM. The TGI [8] was > 100 µM.
For Cc1cc2c(cn1)C(=O)OCC2, the TGI [9] was > 100 µM, the TGI [1] was > 100 µM and the TGI [2] was > 100 µM. For the same compound, the TGI [3] was > 100 µM, the TGI [4] was > 100 µM and the TGI [5] was > 100 µM. For the same compound, the TGI [6] was > 100 µM and the TGI [8] was > 100 µM.
In the case of COc1ccc(/C=C/C(=O)c2ccc(Nc3ncnc4ccccc34)cc2)cc1OC, the GI50 [9] is reported as 3.66 µM, the TGI [9] is reported as > 100 µM and the GI50 [1] is reported as 6.24 µM. For the same compound, the TGI [1] was > 100 µM, the GI50 [2] was 7.03 µM and the TGI [2] was 57.2 µM. For the same compound, the GI50 [3] was 11.5 µM, the TGI [3] was > 100 µM and the GI50 [4] was 3.26 µM. The TGI [4] was 27 µM, the GI50 [5] was 10.9 µM and the TGI [5] was > 100 µM. The GI50 [6] was 13 µM, the TGI [6] was > 100 µM and the GI50 [7] was 3.61 µM. The TGI [7] was 25.2 µM, the GI50 [10] was 19.8 µM and the TGI [10] was > 100 µM.

Reference: PubChem BioAssay (NCI)
